In ChEMBL document CHEMBL5050829, “Inhibitors of cytochrome P450 family 7 subfamily B member 1 (CYP7B1) for use in treating diseases” (2021) one finds inhibition and Activity data, which are given here for four compounds.

For assay [1], the species on record is Mus musculus. In words: Inhibition of Cyp7b1 in cigarette smoke extract (CSE)-stimulated mouse airways at 0.1 to 1 uM assessed as impairment of activated B-cell migration towards supernatant culture relative to control. The format is tissue-based. Particulars: Respiratory airway, dose 0.1-1 µM.
The species entered for assay [2] is Mus musculus. In words: Inhibition of Cyp7b1 in cigarette smoke extract (CSE)-stimulated mouse airways at 1 uM assessed as impairment of activated B-cell migration towards supernatant culture relative to control. It counts as tissue-based. Particulars: Respiratory airway.
The subject of assay [3] is B cell. In words: Inhibition of Cyp7b1 in cigarette smoke extract (CSE) and LPS-stimulated mouse B cells at 0.3 to 1 uM assessed as reduction in Ch25h mRNA expression and measured by RT-PCR analysis relative to control. The conditions noted are these: dose 0.3-1 µM. The format is cell-based.
Assay [4] is filed under the species Mus musculus. The assay can be described thus: Inhibition of Cyp7b1 in cigarette smoke extract (CSE)-stimulated mouse airways at 1 uM assessed as reduction in cyp7b1 mRNA expression relative to control. The format is tissue-based. Particulars: Respiratory airway.
The test system of assay [5] is B cell. In words: Inhibition of Cyp7b1 in cigarette smoke extract (CSE) and LPS-stimulated mouse B cells at 0.3 to 1 uM assessed as reduction in TNF-alpha mRNA expression and measured by RT-PCR analysis relative to control. It counts as cell-based. The conditions noted are these: dose 0.3-1 µM.
Assay [6] concerns Mus musculus. In words: Protection against cigarette smoke-induced COPD in C57BL/6 mouse exposed with cigarette smoke for 4 months assessed as reduction in lymphocyte count in BALF at 80 mg/kg, ip administered 3 times per week from 2 to 4 months. The format is functional, organism-based.
Assay [7] deals with Mus musculus. The assay can be described thus: Protection against cigarette smoke-induced COPD in C57BL/6 mouse exposed with cigarette smoke for 4 months assessed as reduction in emphysema in lungs at 80 mg/kg, ip administered 3 times per week from 2 to 4 months. The format is functional, organism-based. Particulars: Lung.
Assay [8] concerns Mus musculus. In words: Protection against cigarette smoke-induced COPD in C57BL/6 mouse exposed with cigarette smoke for 4 months assessed as reduction in iBALT formation in lungs at 80 mg/kg, ip administered 3 times per week from 2 to 4 months. The conditions noted are these: Lung. The format is functional, organism-based.
Assay [9] concerns Mus musculus. The assay can be described thus: Protection against cigarette smoke-induced COPD in C57BL/6 mouse exposed with cigarette smoke for 4 months assessed as reduction in macrophage count in BALF at 80 mg/kg, ip administered 3 times per week from 2 to 4 months. The format is functional, organism-based.
The test system of assay [10] is Mus musculus. The assay can be described thus: Protection against cigarette smoke-induced COPD in C57BL/6 mouse exposed with cigarette smoke for 6 months assessed as reduction in lung volume at 80 mg/kg, ip administered 3 times per week from 2 to 4 months. The format is functional, organism-based.
The species entered for assay [11] is Mus musculus. The assay can be described thus: Inhibition of Cyp7b1 in cigarette smoke extract (CSE)-stimulated mouse airways at 1 uM assessed as reduction in Ch25h mRNA expression relative to control. It counts as tissue-based. Particulars: Respiratory airway.
Assay [12] deals with Mus musculus. The assay can be described thus: Protection against cigarette smoke-induced COPD in C57BL/6 mouse exposed with cigarette smoke for 6 months assessed as reduction in emphysema in lungs at 80 mg/kg, ip administered 3 times per week from 2 to 4 months. It counts as functional, organism-based. Particulars: Lung.
The subject of assay [13] is Mus musculus. The assay can be described thus: Protection against cigarette smoke-induced COPD in C57BL/6 mouse exposed with cigarette smoke for 6 months assessed as reduction in iBALT formation in lungs at 80 mg/kg, ip administered 3 times per week from 2 to 4 months. The format is functional, organism-based. Particulars: Lung.
Assay [14] concerns Mus musculus. The assay can be described thus: Protection against cigarette smoke-induced COPD in C57BL/6 mouse exposed with cigarette smoke for 4 months assessed as reduction in lung volume at 80 mg/kg, ip administered 3 times per week from 2 to 4 months. It counts as functional, organism-based.
The subject of assay [15] is Mus musculus. The assay can be described thus: Protection against cigarette smoke-induced COPD in C57BL/6 mouse exposed with cigarette smoke for 6 months assessed as reduction in macrophage count in BALF at 80 mg/kg, ip administered 3 times per week from 2 to 4 months. The format is functional, organism-based.
Assay [16] concerns B cell. In words: Inhibition of Cyp7b1 in cigarette smoke extract (CSE) and LPS-stimulated mouse B cells at 0.3 to 1 uM assessed as reduction in cyp7b1 mRNA expression and measured by RT-PCR analysis relative to control. Particulars: dose 0.3-1 µM. The format is cell-based.

Molecules are shown by their SMILES. Active and inactive are the calls of the source. The rule behind the calls is not given here.

As for `CC(C)c1nc(CN(C)C(=O)N[C@H](C(=O)N[C@@H](Cc2ccccc2)C[C@H](O)[C@H](Cc2ccccc2)NC(=O)OCc2cncs2)C(C)C)cs1`, the inhibition result in assay [1] was “Active”.
For `Clc1ccc(COC(Cn2ccnc2)c2ccc(Cl)cc2Cl)c(Cl)c1` (stereo not drawn), in assay [2], the inhibition entry was “Active”.
Same read-out and setting: next, `CC(C)(C(=O)c1cccnc1)c1cccnc1`: “Active”.
With `Clc1ccccc1C(c1ccccc1)(c1ccccc1)n1ccnc1`, the inhibition result in [3], in assay [4], in [5], in assay [2] and in assay [16] was “Active” each time. Besides, the outcome in assay [6], in [7], in [8], in assay [9], in assay [10] and in assay [12] was Active. In addition, the result in assay [13], in [14] and in [15] was Active. The inhibition entry in [11] is “inactive”.
